The values below come from publication PMC5011001 (Biochimica et biophysica acta, 2016).

The structures appear in SMILES notation.

As usually defined, the IC50 is the concentration that inhibits the measured activity by half. The Kd is the equilibrium constant for the complex coming apart.

For one assay, the system named is MAPK13. As to conditions: read-out: IC50 [MAPK13]; cited from earlier work.
Assay [1] addresses T1, MAPK13 (unphosphorylated) (Homo sapiens, UniProt O15264).
T1 sequence (O15264 1-365): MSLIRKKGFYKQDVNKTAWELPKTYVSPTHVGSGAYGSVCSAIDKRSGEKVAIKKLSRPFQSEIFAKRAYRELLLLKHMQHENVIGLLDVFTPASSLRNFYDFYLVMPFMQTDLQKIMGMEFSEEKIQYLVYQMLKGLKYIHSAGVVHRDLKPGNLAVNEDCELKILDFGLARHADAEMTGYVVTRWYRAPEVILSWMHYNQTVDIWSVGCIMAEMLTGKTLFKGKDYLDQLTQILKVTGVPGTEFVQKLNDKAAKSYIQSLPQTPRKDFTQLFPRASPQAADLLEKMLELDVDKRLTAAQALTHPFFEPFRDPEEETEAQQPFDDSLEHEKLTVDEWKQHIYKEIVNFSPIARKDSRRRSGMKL
The assay can be described thus: Differential scanning fluorimetry. The format is binding. Background: In DSF a fluorescence change marks the thermal transition of the protein.

Assay [2] deals with T2, activated (phosphorylated) MAPK13 (Homo sapiens, UniProt O15264).
T2 sequence (O15264 1-365): T1 sequence (O15264 1-365)
The assay can be described thus: MAPK13 kinase inhibition assay. The format is biochemical. As to conditions: for IC50 (MAPK13): steady-state enzyme inhibition, 3 μM ATP, stated as range in words; for fold less potent (IC50) than compounds 58 and 61: MAPK13 IC50 comparison.

The next assay concerns the target MAPK14 (Homo sapiens, UniProt Q16539). The assay can be described thus: Differential scanning fluorimetry. The format is binding.

Sequence of MAPK14 (Q16539 whole entry, species assumed): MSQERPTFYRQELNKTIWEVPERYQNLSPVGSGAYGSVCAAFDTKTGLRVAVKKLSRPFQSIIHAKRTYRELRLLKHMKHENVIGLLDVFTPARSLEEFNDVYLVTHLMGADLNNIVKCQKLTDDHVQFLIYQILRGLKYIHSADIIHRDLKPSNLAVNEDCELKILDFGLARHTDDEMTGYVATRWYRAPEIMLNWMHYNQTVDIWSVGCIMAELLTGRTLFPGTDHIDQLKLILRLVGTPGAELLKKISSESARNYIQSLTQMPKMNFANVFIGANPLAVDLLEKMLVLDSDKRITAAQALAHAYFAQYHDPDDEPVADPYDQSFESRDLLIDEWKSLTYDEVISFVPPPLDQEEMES

`Cc1ccc(-n2nc(C(C)(C)C)cc2NC(=O)Nc2ccc(OCCN3CCOCC3)c3ccccc23)cc1` [BIRB-796]: in the assay with MAPK13, the IC50 was […].
The molecule `Cn1nc(C(C)(C)C)cc1NC(=O)Nc1ccc(Sc2ccncc2)cc1` [Compound 58, 1-(3-tert-butyl-1-methyl-1H-pyrazol-5-yl)-3-[4-(pyridin-4-ylsulfanyl)phenyl]urea] registered a Kd in assay [1] of 1900 ± 300 nM. In assay [2], the “IC50 (MAPK13)” value was “nanomolar range”.
On to `Cc1cn(-c2cccc(C(=O)Nc3ccc(Oc4ccncc4)cc3)c2)cn1` [Compound 117, 3-(4-methyl-1H-imidazol-1-yl)-N-[4-(pyridin-4-xyloxy)phenyl] benzamide], for which, in assay [2], the “fold less potent (IC50) than compounds 58 and 61” value is recorded as “over 800 fold”; the “IC50 (MAPK13)” value is “micromolar range”.
`O=C(Nc1ccc(Oc2ccncc2)cc1)c1ccnc(N2CCOCC2)c1` [Compound 124]: the “ATm-MAPK14 (°C)” value on MAPK14 is −0.8± 0.3 °C. Further, in assay [2], the “fold less potent (IC50) than compounds 58 and 61” value is given as “over 800 fold”.
